Reference: PMC11574862 (The Journal of General Physiology, 2024)
Values joined by “and” are separate entries in the source; they are usually repeats but may differ in a detail not shown here. Identical values can stand only once.

What was measured:
Type in all cases: binding
VC0430 (VcGluP) wildtype [1] = target: T1, VC0430 (VcGluP) wildtype (Vibrio cholerae, UniProt Q9KUT5)
VC0430 (VcGluP) wildtype [2] = target: T1, VC0430 (VcGluP) wildtype; assay: biochemical
VcGluP E125A = VcGluP E125A (Vibrio cholerae, UniProt Q9KUT5, E125A)
VcGluP M201A = VcGluP M201A (Vibrio cholerae, UniProt Q9KUT5, M201A)
VcGluP Y200A = VcGluP Y200A (Vibrio cholerae, UniProt Q9KUT5, Y200A)
VcGluP Y45A = VcGluP Y45A (Vibrio cholerae, UniProt Q9KUT5, Y45A)
VcGluP Q93A = VcGluP Q93A (Vibrio cholerae, UniProt Q9KUT5, Q93A)
VcGluP S75A = VcGluP S75A (Vibrio cholerae, UniProt Q9KUT5, S75A)

Compound | Average Tm (VC0430 (VcGluP) wildtype [1]) | Tm Replicate 1 (VC0430 (VcGluP) wildtype [1]) | Tm Replicate 2 (VC0430 (VcGluP) wildtype [1]) | Tm Replicate 3 (VC0430 (VcGluP) wildtype [1]) | Kd (VC0430 (VcGluP) wildtype [2]) [µM] | change in VC0430's Tm (Tm increase) (VC0430 (VcGluP) wildtype [1]) | other results
NC(=O)CCC(N)C(=O)O (stereo in doubt) [D-glutamine] | 46.40 °C and 47.06 °C and 48.72 °C | 46.73 °C and 46.72 °C and 48.72 °C | 45.74 °C and 47.72 °C and 48.72 °C | 46.73 °C (2×) and 48.72 °C | – | – | fluorescence enhancement in titration (Kd could not be determined) (VC0430 (VcGluP) wildtype [2]): lack of fluorescence enhancement
N[C@H](CCC(=O)O)C(=O)O [D-glutamate] | 58.65 °C | 58.65 °C | 58.65 °C | 58.65 °C | 24.5 ± 10.6 | – | –
N[C@@H](CC(=O)O)C(=O)O [L-aspartate] | 47.06 °C | 47.72 °C | 45.74 °C | 47.73 °C | – | no change | –
N[C@@H](CCC(=O)O)C(=O)O [L-glutamate] | – | – | – | – | 0.065 ± 0.031 | – | ligand concentration giving maximum fluorescence enhancement (VcGluP E125A): ≤ 50 µM; ligand concentration giving maximum fluorescence enhancement (VcGluP M201A): ≤ 50 µM; ligand concentration giving maximum fluorescence enhancement (VcGluP Y200A): ≤ 50 µM; ligand concentration giving maximum fluorescence enhancement (VcGluP Y45A): ≤ 50 µM; ligand concentration needed to saturate fluorescence enhancement (VcGluP Q93A): a higher concentration was required; ligand concentration giving maximum fluorescence enhancement (VcGluP S75A): ≤ 50 µM
NC(=O)CC[C@H](N)C(=O)O [L-glutamine] | – | – | 50.70 °C and 53.68 °C and 55.67 °C and 50.71 °C | – | 11 ± 2 | – | –
NCCCC[C@H](N)C(=O)O [L-lysine] | 44.41 °C | 43.75 °C | 44.74 °C | 44.74 °C | – | no change | –
O=C(O)[C@@H]1CCC(O)=N1 [L-pyroglutamate] | – | – | – | – | 50 ± 16 | – | effect on VcGluP's stability (DSF) (VC0430 (VcGluP) wildtype [1]): enhanced VcGluP’s stability in a dose-dependent manner
O=C(O)CCCCC(=O)O [adipate] | 44.74 °C | 43.75 °C | 45.74 °C | 44.74 °C | – | no change | –
O=C(O)CCC(=O)C(=O)O [α-ketoglutarate] | 47.39 °C | 50.71 °C | 45.74 °C | 45.74 °C | – | no change | –
